How the values were obtained:
Assay type in all cases: in vivo
[1] = tested on: barnyardgrass (Echinochloa crus-galli); assay: Test G Pre-Emergence Protocol; conditions: Echinochloa crus-galli, pre-emergence, 312 h, evaluated after 13 days; for pest or weed control at 15.625 g/ha: 15.625 g ai/ha; for pest or weed control at 15.625 g/ha / pest or weed control at 250 g/ha: read-out: Barnyardgrass damage rating (100=total damage to plant; 0=no damage to plant); for pest or weed control at 62.5 g/ha: 62.5 g ai/ha, 100=total damage to plant, 0=no damage to plant, read-out: Barnyardgrass damage rating; for pest or weed control at 250 g/ha: 250 g ai/ha
Outline: (§1)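 One day after sowing, pots are treated with a spray of test compound formulated in acetone/water 50:50 plus 0.5% Tween 20, giving 15.625, 62.5 or 250 g/ha. Evaluation on a 0–100 damage scale follows 13 days of glasshouse growth.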

corn (Zea mays) [2] = assay: Test G Pre-Emergence Protocol; conditions: Zea mays, pre-emergence, 312 h, evaluated after 13 days; for plant injury at 15.625 g/ha: 15.625 g ai/ha; for plant injury at 15.625 g/ha / plant injury at 250 g/ha: read-out: Corn damage rating (100=total damage to plant; 0=no damage to plant); for plant injury at 62.5 g/ha: 62.5 g ai/ha, 100=total damage to plant, 0=no damage to plant, read-out: Corn damage rating; for plant injury at 250 g/ha: 250 g ai/ha
Outline: as §1

[3] = tested on: giant foxtail (Setaria faberi); assay: Test G Pre-Emergence Protocol; conditions: Setaria faberi, pre-emergence, 312 h, evaluated after 13 days; for pest or weed control at 15.625 g/ha: 15.625 g ai/ha; for pest or weed control at 15.625 g/ha / pest or weed control at 250 g/ha: read-out: Foxtail, Giant damage rating (100=total damage to plant; 0=no damage to plant); for pest or weed control at 62.5 g/ha: 62.5 g ai/ha, 100=total damage to plant, 0=no damage to plant, read-out: Foxtail, Giant damage rating; for pest or weed control at 250 g/ha: 250 g ai/ha
Outline: as §1

[4] = tested on: ivy-leaved morning glory (Ipomoea hederacea); assay: Test G Pre-Emergence Protocol; conditions: Ipomoea, pre-emergence, 312 h, evaluated after 13 days; for pest or weed control at 15.625 g/ha: 15.625 g ai/ha; for pest or weed control at 15.625 g/ha / pest or weed control at 250 g/ha: read-out: Morningglory, Ivy-leaved damage rating (100=total damage to plant; 0=no damage to plant); for pest or weed control at 62.5 g/ha: 62.5 g ai/ha, 100=total damage to plant, 0=no damage to plant, read-out: Morningglory, Ivy-leaved damage rating; for pest or weed control at 250 g/ha: 250 g ai/ha
Outline: as §1

[5] = tested on: redroot pigweed (Amaranthus retroflexus); assay: Test G Pre-Emergence Protocol; conditions: Amaranthus retroflexus, pre-emergence, 312 h, evaluated after 13 days; for pest or weed control at 15.625 g/ha: 15.625 g ai/ha; for pest or weed control at 15.625 g/ha / pest or weed control at 250 g/ha: read-out: Pigweed, Redroot damage rating (100=total damage to plant; 0=no damage to plant); for pest or weed control at 62.5 g/ha: 62.5 g ai/ha, 100=total damage to plant, 0=no damage to plant, read-out: Pigweed, Redroot damage rating; for pest or weed control at 250 g/ha: 250 g ai/ha
Outline: as §1

[6] = tested on: velvetleaf (Abutilon theophrasti); assay: Test G Pre-Emergence Protocol; conditions: Abutilon theophrasti, pre-emergence, 312 h, evaluated after 13 days; for pest or weed control at 15.625 g/ha: 15.625 g ai/ha; for pest or weed control at 15.625 g/ha / pest or weed control at 250 g/ha: read-out: Velvetleaf damage rating (100=total damage to plant; 0=no damage to plant); for pest or weed control at 62.5 g/ha: 62.5 g ai/ha, 100=total damage to plant, 0=no damage to plant, read-out: Velvetleaf damage rating; for pest or weed control at 250 g/ha: 250 g ai/ha
Outline: as §1

[7] = tested on: barnyardgrass (Echinochloa crus-galli); assay: Test G Post-Emergence Protocol; conditions: Echinochloa crus-galli, post-emergence, 312 h, read-out: Barnyardgrass damage rating; for pest or weed control at 15.625 g/ha: 15.625 g ai/ha, evaluated after 13 days (100=total damage to plant; 0=no damage to plant); for pest or weed control at 62.5 g/ha: 62.5 g ai/ha; for pest or weed control at 62.5 g/ha / pest or weed control at 250 g/ha: evaluated after 13 days, 100=total damage to plant, 0=no damage to plant; for pest or weed control at 250 g/ha: 250 g ai/ha
Outline: (§2)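 Scores run 0 (no damage) to 100 (total damage) and were taken 13 days after spraying. Plants had been raised in pots for 8 days under glasshouse control (24/16 °C, 14 h photoperiod, 65% humidity) and then treated at 15.625, 62.5 or 250 g/ha.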

corn (Zea mays) [8] = assay: Test G Post-Emergence Protocol; conditions: Zea mays, post-emergence, 312 h, read-out: Corn damage rating; for plant injury at 15.625 g/ha: 15.625 g ai/ha, evaluated after 13 days (100=total damage to plant; 0=no damage to plant); for plant injury at 62.5 g/ha: 62.5 g ai/ha; for plant injury at 62.5 g/ha / plant injury at 250 g/ha: evaluated after 13 days, 100=total damage to plant, 0=no damage to plant; for plant injury at 250 g/ha: 250 g ai/ha
Outline: as §2

[9] = tested on: giant foxtail (Setaria faberi); assay: Test G Post-Emergence Protocol; conditions: Setaria faberi, post-emergence, 312 h, read-out: Foxtail, Giant damage rating; for pest or weed control at 15.625 g/ha: 15.625 g ai/ha, evaluated after 13 days (100=total damage to plant; 0=no damage to plant); for pest or weed control at 62.5 g/ha: 62.5 g ai/ha; for pest or weed control at 62.5 g/ha / pest or weed control at 250 g/ha: evaluated after 13 days, 100=total damage to plant, 0=no damage to plant; for pest or weed control at 250 g/ha: 250 g ai/ha
Outline: as §2

[10] = tested on: ivy-leaved morning glory (Ipomoea hederacea); assay: Test G Post-Emergence Protocol; conditions: Ipomoea, post-emergence, 312 h, read-out: Morningglory, Ivy-leaved damage rating; for pest or weed control at 15.625 g/ha: 15.625 g ai/ha, evaluated after 13 days (100=total damage to plant; 0=no damage to plant); for pest or weed control at 62.5 g/ha: 62.5 g ai/ha; for pest or weed control at 62.5 g/ha / pest or weed control at 250 g/ha: evaluated after 13 days, 100=total damage to plant, 0=no damage to plant; for pest or weed control at 250 g/ha: 250 g ai/ha
Outline: as §2

[11] = tested on: redroot pigweed (Amaranthus retroflexus); assay: Test G Post-Emergence Protocol; conditions: Amaranthus retroflexus, post-emergence, 312 h, read-out: Pigweed, Redroot damage rating; for pest or weed control at 15.625 g/ha: 15.625 g ai/ha, evaluated after 13 days (100=total damage to plant; 0=no damage to plant); for pest or weed control at 62.5 g/ha: 62.5 g ai/ha; for pest or weed control at 62.5 g/ha / pest or weed control at 250 g/ha: evaluated after 13 days, 100=total damage to plant, 0=no damage to plant; for pest or weed control at 250 g/ha: 250 g ai/ha
Outline: as §2

[12] = tested on: velvetleaf (Abutilon theophrasti); assay: Test G Post-Emergence Protocol; conditions: Abutilon theophrasti, post-emergence, 312 h, read-out: Velvetleaf damage rating; for pest or weed control at 15.625 g/ha: 15.625 g ai/ha, evaluated after 13 days (100=total damage to plant; 0=no damage to plant); for pest or weed control at 62.5 g/ha: 62.5 g ai/ha; for pest or weed control at 62.5 g/ha / pest or weed control at 250 g/ha: evaluated after 13 days, 100=total damage to plant, 0=no damage to plant; for pest or weed control at 250 g/ha: 250 g ai/ha
Outline: as §2

SMILES	pest or weed control at 15.625 g/ha [1]	pest or weed control at 62.5 g/ha [1]	pest or weed control at 250 g/ha [1]	plant injury at 15.625 g/ha (corn (Zea mays) [2])	plant injury at 62.5 g/ha (corn (Zea mays) [2])	plant injury at 250 g/ha (corn (Zea mays) [2])	pest or weed control at 15.625 g/ha [3]	pest or weed control at 62.5 g/ha [3]	pest or weed control at 250 g/ha [3]	pest or weed control at 15.625 g/ha [4]	pest or weed control at 62.5 g/ha [4]	pest or weed control at 250 g/ha [4]	pest or weed control at 15.625 g/ha [5]	pest or weed control at 62.5 g/ha [5]	pest or weed control at 250 g/ha [5]	pest or weed control at 15.625 g/ha [6]	pest or weed control at 62.5 g/ha [6]	pest or weed control at 250 g/ha [6]	pest or weed control at 15.625 g/ha [7]	pest or weed control at 62.5 g/ha [7]	further results
Cc1cc(C2CN(C)C(=O)C2C(=O)Nc2cccc(F)c2F)cc(C(F)(F)F)c1 (stereo not drawn) [Compound 1723]	10%	40%	90%	0%	0%	60%	60%	70%	90%	0%	0%	10%	0%	0%	30%	0%	0%	10%	30%	80%	pest or weed control at 250 g/ha [7]: 80%; plant injury at 15.625 g/ha (corn (Zea mays) [8]): 30%; plant injury at 62.5 g/ha (corn (Zea mays) [8]): 60%; plant injury at 250 g/ha (corn (Zea mays) [8]): 70%; pest or weed control at 15.625 g/ha [9]: 70%; pest or weed control at 62.5 g/ha [9]: 80%; pest or weed control at 250 g/ha [9]: 80%; pest or weed control at 15.625 g/ha [10]: 30%; pest or weed control at 62.5 g/ha [10]: 70%; pest or weed control at 250 g/ha [10]: 40%; pest or weed control at 15.625 g/ha [11]: 20%; pest or weed control at 62.5 g/ha [11]: 20%; pest or weed control at 250 g/ha [11]: 30%; pest or weed control at 15.625 g/ha [12]: 10%; pest or weed control at 62.5 g/ha [12]: 10%; pest or weed control at 250 g/ha [12]: 20%
CC(C)Oc1cc(OC(F)(F)F)cc(C2CN(C)C(=O)C2C(=O)Nc2cccc(F)c2F)c1 (stereo not drawn) [Compound 1726]	0%	50%	70%	0%	0%	30%	10%	50%	80%	0%	0%	0%	0%	0%	10%	0%	0%	0%	0%	30%	pest or weed control at 250 g/ha [7]: 70%; plant injury at 15.625 g/ha (corn (Zea mays) [8]): 10%; plant injury at 62.5 g/ha (corn (Zea mays) [8]): 30%; plant injury at 250 g/ha (corn (Zea mays) [8]): 70%; pest or weed control at 15.625 g/ha [9]: 0%; pest or weed control at 62.5 g/ha [9]: 70%; pest or weed control at 250 g/ha [9]: 70%; pest or weed control at 15.625 g/ha [10]: 10%; pest or weed control at 62.5 g/ha [10]: 10%; pest or weed control at 250 g/ha [10]: 70%; pest or weed control at 15.625 g/ha [11]: 20%; pest or weed control at 62.5 g/ha [11]: 0%; pest or weed control at 250 g/ha [11]: 40%; pest or weed control at 15.625 g/ha [12]: 0%; pest or weed control at 62.5 g/ha [12]: 0%; pest or weed control at 250 g/ha [12]: 20%
